From patent US7160690B2, “Nitrate sensor” (Arete Associates, priority 2001, dated 2007)
Like-named read-outs stand apart in the source and are kept apart here.

Columns and labels:
[1] = test system: FAD; details: 0 to 20 ppm nitrate; FIG. 10, data line 38
Procedure: (§1) To further investigate the quenching of Mo-MPT 10 by nitrate 30, a comparison study was performed comparing quenching of Mo-MPT 10 versus FAD 14 by nitrate 30. […] The data line labeled 38 represents quenching of FAD 14, while the data line labeled 40 represents quenching of Mo-MPT 10.

[2] = test system: nitrate reductase; details: read-out: Michaelis constant (Km) of nitrate reduction; nitrate concentration at which the reaction is half maximal; cited from earlier work
[3] = test system: molybdenum-molybdopterin (Mo-MPT) center of nitrate reductase; details: for lowest nitrate concentration at which quenching of the emission signal is observed: FIG. 8
Procedure: Instead, the biosensor method of this invention uses fluorescence detection to sense nitrate 30 levels.
Once the Mo-MPT 10 is obtained, its initial fluorescence signal is measured.
The quenched fluorescence (Q) is a function of the maximum possible quenching at an infinite nitrate concentration (Qmax) and the affinity of nitrate for its binding site (Kd) in the vicinity of its binding site, or Mo-MPT 10. Thus, it follows Q=(Q max [nitrate])/(Kd+[nitrate]) where: • Q is the quenched fluorescence; • Qmax is maximal quenching at infinite concentration of nitrate; and • Kd is nitrate affinity for the binding site. Quenching can also be considered in terms of: F=Fo−Q where: • F is the fluorescence in the presence of nitrate; • Fo is the fluorescence in the absence of nitrate; and • Q is the quenched fluorescence.
The data was used to calculate Qmax and Kd based on the above equations.
as §1

## O=[N+]([O-])O [nitrate]
[1]
  type of fluorescence quenching of FAD by nitrate / interaction: no specific interaction
[2]
  Km: 13 µM
[3]; 0 to 4 ppm nitrate, FIG. 10, data line 40
  type of fluorescence quenching of Mo-MPT by nitrate: static quenching
[3]; fluorescence at 440 nm, FIG. 9, exceeds unity, believed to be an experimental artifact
  Qmax (maximal quenching at infinite concentration of nitrate): 1.07
[3]; nitrate added at 0.3 ppm to 3.4 ppm
  lowest nitrate concentration at which quenching of the emission signal is observed: 0.3 ppm
[3]; read-out: Kd (nitrate affinity for the binding site, Mo-MPT), fluorescence at 440 nm, fit of Q=(Qmax[nitrate])/(Kd+[nitrate]), FIG. 9
  Kd: 20 µM
[3]; same as 0.3 ppm
  lowest nitrate concentration at which quenching of the emission signal is observed: 23 µmol
